As a reminder, the IC50 is the concentration that inhibits the measured activity by half.

The target of one assay is T1, Syk kinase (Homo sapiens, UniProt P43405).
T1 construct: purchased
As to the kind of experiment: Syk kinase inhibition, Caliper LabChip off-chip mobility-shift kinase assay. Conditions: Caliper LabChip assay; read-out: Syk Enzyme IC50. The class given is biochemical. The essentials: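 Purified Syk pre-incubated 15 min with compound in 100 mM HEPES pH 7.5, 1 mM DTT, 10 mM MgCl2 or MnCl2, 0.002% Brij-35, then 1.5 μM fluorescein peptide and ATP at apparent KM added; 1–1.5 h at room temperature, 4% DMSO, EDTA stop. Microfluidic mobility-shift product/substrate conversion gave % inhibition; IC50 from 12-point series (10–0.00003 μM) by 4-parameter fit.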
Turning to `CCn1ccc2cc(Nc3cc(C)ccn3)nc(Nc3ccc(C(=O)N4CCC(O)C4)cc3)c2c1=O` (stereo not shown) [compound 836], the IC50 amounted to 119 nM.

Consider `CC(C)(C)Nc1nc(-c2cnc(N)nc2)cc2ccn(CC(O)CO)c(=O)c12` (stereo not shown) [compound 929], for which the IC50 was determined as 8 nM.

For `Cn1cc(-c2cc(Nc3cc4ccn(CCO)c(=O)c4c(NC(C)(C)C)n3)ncn2)cn1` [compound 636], the concentration for half-maximal inhibition (IC50) was 237 nM.

Take `[2H]C([2H])([2H])n1ccc2cc(Nc3cnccn3)nc(N[C@H]3CC[C@H](O)CC3)c2c1=O` [compound 984]: the IC50 came out at 29 nM.

As for `CC(C)n1ccc2cc(Nc3cnccn3)nc(N[C@@H](C)CO)c2c1=O` [compound 967], the 50% inhibitory concentration (IC50) worked out at 17 nM.

For `CC(C)(C)Nc1nc(Nc2cc(C(C)(C)O)ncn2)cc2ccn(C[C@H](O)CO)c(=O)c12` [compound 740], the half-maximal inhibitory concentration (IC50) came to 54 nM.

`CCn1ccc2cc(Nc3cnccn3)nc(N[C@H](CO)C(C)C)c2c1=O` [compound 1043]: the IC50 was found to be 122 nM.

Regarding `CN1CCC(Oc2cc(Nc3cc4ccn(C[C@H](O)CO)c(=O)c4c(NC(C)(C)C)n3)ncn2)CC1` [compound 649], the IC50 was 6 nM.

With `CC(C)(C)Nc1nc(Nc2c[n+]([O-])ccn2)cc2ccn(C[C@@H](O)CO)c(=O)c12` [compound 675], the half-maximal inhibitory concentration (IC50) came out at 6 nM.

For the molecule `CCn1ccc2cc(Nc3cnccn3)nc(NC3CCC(C)(O)CC3)c2c1=O` (stereo not shown) [compound 952], the IC50 was 51 nM.

For the molecule `O=c1[nH]ccc2cc(Nc3cnccn3)nc(NC3CCCC3)c12` [compound 766], the half-inhibitory concentration (IC50) worked out at 7 nM.

In the case of `CC(C)(O)Cn1ccc2cc(Nc3cc(C(C)(C)O)ncn3)nc(NC(C)(C)C)c2c1=O` [compound 731], the IC50 is 109 nM.

Turning to `CC(C)(C)Nc1nc(Nc2cc(Oc3cn[nH]c3)ncn2)cc2ccn(C[C@H](O)CO)c(=O)c12` [compound 890], the IC50 amounted to 21 nM.

Take `Nc1ncc(-c2cc3ccn(CCO)c(=O)c3c(NC3CC3)n2)cn1` [compound 1035]: the concentration for half-maximal inhibition (IC50) worked out at 38 nM.

As for `Nc1nc(Nc2cnccn2)cc2ccn(CCO)c(=O)c12` [compound 811], the IC50 amounted to 651 nM.

Regarding `CC(C)(C)Nc1nc(Nc2cc(C(C)(C)C(N)=O)ccn2)cc2ccn(CCO)c(=O)c12` [compound 862], the IC50 turned out to be 579 nM.

As to `CC1(Nc2nc(Nc3cc(C4(O)COC4)ccn3)cc3ccn(CC(N)=O)c(=O)c23)CC1` [compound 617], the IC50 was found to be 64 nM.

As for `CC(C)(O)Cc1ccnc(Nc2cc3ccn(CCO)c(=O)c3c(NC(C)(C)C)n2)c1` [compound 880], the IC50 was determined as 74 nM.

In the case of `CC1(Nc2nc(-c3cnc(N)nc3)cc3ccn(CCO)c(=O)c23)CC1` [compound 1036], the IC50 worked out at 20 nM.

For the molecule `CC(C)n1ccc2cc(Nc3cnccn3)nc(N[C@H]3CC[C@@H](O)CC3)c2c1=O` [compound 944], the IC50 came to 32 nM.

`NC(=O)Cn1ccc2cc(-c3cnc(N)nc3)nc(N[C@H]3C[C@@H](CO)C3)c2c1=O` [compound 746]: the IC50 turned out to be 44 nM.

Turning to `CCn1ccc2cc(Nc3cnccn3)nc(NC(C)(C)CCO)c2c1=O` [compound 783], the half-maximal inhibitory concentration (IC50) was 179 nM.

As to `CC(C)(C)Nc1nc(-c2cnc(N)nc2)cc2cc[nH]c(=O)c12` [compound 894], the concentration for half-maximal inhibition (IC50) was found to be 5 nM.

For the molecule `Cn1cc2cc(Nc3nc(Nc4cnccn4)cc4ccn(CCO)c(=O)c34)ccc2n1` [compound 659], the half-inhibitory concentration (IC50) amounted to 103 nM.

Regarding `CCn1ccc2cc(Nc3cnccn3)nc(Nc3ccc(C(=O)N4CCC(O)CC4)cc3)c2c1=O` [compound 832], the half-maximal inhibitory concentration (IC50) was 1130 nM.

Staying with this assay, now noted: read-out: Syk Enzyme IC50.
Turning to `Nc1ncc(-c2cc3cc[nH]c(=O)c3c(NCCc3cccnc3)n2)cn1` [compound 188], the IC50 stood at 93 nM.

As to `Cn1ccc2cc(Nc3cnccn3)nc(NC(C)(C)C)c2c1=O` [compound 463], the IC50 came out at 54 nM.

`COc1cncc(-c2cc3cc[nH]c(=O)c3c(Nc3ccc(C4CCN(CC(=O)N(C)C)CC4)c(C)c3)n2)n1` [compound 167]: the concentration for half-maximal inhibition (IC50) was determined as 91 nM.

For `COc1cncc(-c2cc3cc[nH]c(=O)c3c(Nc3ccc(C4CCN(CC(C)C#N)CC4)c(C)c3)n2)n1` (stereo not shown) [compound 178], the IC50 turned out to be 61 nM.

As to `CCN1CCN(CCc2ccc(Nc3nc(Nc4ccccn4)cc4cc[nH]c(=O)c34)cc2)CC1` [compound 551], the concentration for half-maximal inhibition (IC50) worked out at 200 nM.

For the molecule `CCn1ccc2cc(Nc3cc(C)c(F)cn3)nc(N[C@@H](C)CO)c2c1=O` [compound 395], the half-inhibitory concentration (IC50) came to 85 nM.

For the molecule `COc1ncc(-c2cc3cc[nH]c(=O)c3c(Nc3ccc(CCN4CCCN(C)CC4)cc3)n2)cn1` [compound 436], the IC50 stood at 140 nM.

With `CCN1CCN(Cc2n[nH]c3cc(Nc4nc(-c5cncc(C(=O)N6CCOCC6)c5)cc5cc[nH]c(=O)c45)ccc23)CC1` [compound 207], the half-maximal inhibitory concentration (IC50) amounted to 89 nM.

For `CCN1CCN(CCc2ccc(Nc3nc(Nc4cc(C)ccn4)cc4cc[nH]c(=O)c34)cc2)CC1` [compound 585], the IC50 came out at 81 nM.

Consider `COCCNC(=O)C(C)N1CCC(c2ccc(Nc3nc(-c4cncc(OC)n4)cc4cc[nH]c(=O)c34)cc2C)CC1` (stereo not shown) [compound 123], for which the IC50 amounted to 150 nM.

Consider `Cc1ccc(-c2cc3cc[nH]c(=O)c3c(Nc3ccc(CCN4CCNC(=O)C4)cc3)n2)cn1` [compound 152], for which the IC50 turned out to be 117 nM.

With `CC[C@H](C)Nc1nc(-c2cnc(N)nc2)cc2cc[nH]c(=O)c12` [compound 187], the half-inhibitory concentration (IC50) came out at 301 nM.

For the molecule `Cn1ccc2cc(Nc3cnccn3)nc(NC3CCC3)c2c1=O` [compound 460], the IC50 is 16 nM.

Take `CCCc1ccnc(Nc2cc3cc[nH]c(=O)c3c(NC(C)C)n2)c1` [compound 502]: the half-maximal inhibitory concentration (IC50) was 164 nM.

For `Cn1ccc2cc(Nc3ccc(C#N)cn3)nc(N)c2c1=O` [compound 573], the IC50 amounted to 3870 nM.

Take `COc1cncc(-c2cc3cc[nH]c(=O)c3c(Nc3ccc(C4CN(C)C4)cc3)n2)n1` [compound 146]: the IC50 came out at 4 nM.

Take `CCn1ccc2cc(Nc3cnc(C)cn3)nc(N[C@H]3CC[C@@H](O)CC3)c2c1=O` [compound 392]: the IC50 was determined as 193 nM.

For the molecule `CCCc1cc2cc[nH]c(=O)c2c(Nc2ccc(N3CCO[C@H](C)C3)c(C)c2)n1` [compound 225], the IC50 stood at 2300 nM.

Turning to `CCC(C)Nc1nc(Nc2ccc(F)cn2)cc2cc[nH]c(=O)c12` (stereo not shown) [compound 264], the half-inhibitory concentration (IC50) came to 423 nM.

Take `Cc1cc(Nc2nc(Nc3cc(C(=O)O)ccn3)cc3cc[nH]c(=O)c23)ccc1C1CCN(C2CC2)CC1` [compound 261]: the IC50 was 249 nM.

On to `Cn1ccc2cc(Nc3cnccn3)nc(N[C@H]3CCOC3)c2c1=O` [compound 329], for which the IC50 turned out to be 63 nM.

For `Cc1ccnc(Nc2cc3cc[nH]c(=O)c3c(NC(C)CO)n2)c1` (stereo not shown) [compound 265], the concentration for half-maximal inhibition (IC50) came out at 18 nM.

Take `CN1CCC(c2ccc(Nc3nc(Nc4cnccn4)cc4ccn(C)c(=O)c34)cc2)CC1` [compound 344]: the IC50 was determined as 45 nM.

Take `COc1cncc(-c2cc3cc[nH]c(=O)c3c(Nc3ccc(C4CCN(C(=O)N5CCCC5)CC4)c(C)c3)n2)n1` [compound 113]: the IC50 amounted to 2320 nM.

With `Cc1ccnc(Nc2cc3ccn(CCO)c(=O)c3c(Nc3ccc(S(C)(=O)=O)cc3)n2)c1` [compound 404], the IC50 came to 63.4 nM.

Regarding `COCCCN1CCC(c2ccc(Nc3nc(-c4cncc(OC)n4)cc4cc[nH]c(=O)c34)cc2C)CC1` [compound 141], the IC50 was 7 nM.

`CCCc1ccnc(Nc2cc3ccn(CC)c(=O)c3c(NC(C)C)n2)c1` [compound 306]: the half-maximal inhibitory concentration (IC50) was 612 nM.

(Values after patent US20110053897A1 (IRM LLC, priority 2009, published 2011).)
